Results: US20040131574A1, “Method and composition for the control of hair growth” (priority 2001, published 2004)

What was measured:
Format in all cases: in vivo
[1] = system: hair regrowth; assay: hair regrowth after shaving in dogs treated s.c. for 20 days; details: s.c. 4.3 mg/kg/d for 20 days, shaved 5 days post-drug, observed approximately 8 weeks post-drug
Method: Two dogs were treated with (R,R)—(HO)2DEHSPM (dihydroxydiethylhomospermine) s.c. at a dose of 4.3 mg/kg/d for 20 days. The dogs were Holter-Monitored once weekly for evidence of cardiac rhythm disturbances. A post-drug Holter monitoring was performed 5 days post-drug and hair was shaved at that time to allow for the placing of the leads.

[2] = system: hair regrowth; assay: hair regrowth after shaving in dogs treated s.c. twice daily for 13 days, versus saline control dog; details: total daily dose 4-3 mg/kg; for relative order of hair regrowth: approximately 6 weeks post-drug; for hair regrowth compared with control dog: shaved 3 days post-drug, observed approximately 6 weeks post-drug
Method: Several dogs were treated with (R,R) or (S,S)—(HO)2DEHSPM s.c. twice daily for 13 days. The total daily dose was 4-3 mg/kg. One additional dog served as a saline-treated control animal. All of the dogs were Holter monitored once weekly for evidence of cardiac rhythm disturbances. A post-drug Holter monitoring was performed 3 days post-drug and hair was shaved at that time to allow for the placing of the leads.

[3] = system: hair growth in the shaved area; assay: hair re-growth in partially shaven mice; details: C57/B16 mice
Method: Fourteen C57/B16 mice were partially shaven; one was maintained as a control and to the remainder was administered diethyl-homospermine [10 mg/kg-0.01% solution (Bid)], six times daily over 9 days.
The above test (Example 1) was repeated except that the dosage of polyamine was 7.5 mg/kg.

Structure (SMILES)	hair regrowth at shaved Holter lead sites [1]	relative order of hair regrowth [2]	hair regrowth compared with control dog [2]	resumption of normal hair growth in the shaved area ([3]; 10 mg/kg-0.01% solution (Bid), six times daily over 9 days)	normal hair re-growth in the shaved areas ([3]; dosage 7.5 mg/kg, otherwise as Example 1)
CCNC[C@H](O)CCNCCCCNCC[C@@H](O)CNCC [(R,R)—(HO)2DEHSPM, (R,R)-dihydroxydiethylhomospermine]	hair from the last Holter monitoring had not grown back	control dog >(S,S)—(HO)2DEHSPM dogs>(R,R)—HO2DEHSPM dogs	this was not the case with the treated animals		
CCNC[C@@H](O)CCNCCCCNCC[C@H](O)CNCC [(S,S)—(HO)2DEHSPM, (S,S)-dihydroxydiethylhomospermine]		control dog >(S,S)—(HO)2DEHSPM dogs>(R,R)—HO2DEHSPM dogs	this was not the case with the treated animals		
CCNCCCCNCCCCNCCCCNCC [diethyl-homospermine, N,N′-diethylhomospermine]				The control resumed normal hair growth immediately in the shaved area, unlike the remainder of the mice in the test	the mice treated with the polyamine did not
